Test system: human NPY-Y7 receptors
Test: Competitive displacement of [125I]PYY on membranes of COSm6 cells transiently expressing human NPY-Y7 receptors
Type: binding
Settings: COS-6 or HEX (293) cells transiently expressing recombinant Y7 receptor protein; FIG. 2
Procedure: The results were obtained through competitive displacement of [^125I]PYY on membranes of COSm6 cells transiently expressing human NPY-Y7 receptors. Membranes were incubated with [^125I]PYY (50 pM) and increasing concentrations of peptide competitors. Data are representative of a single experiment with each point measured in triplicate.
These experiments were conducted using COS-6 or HEX (293) cells transiently expressing recombinant Y7 receptor protein.
pcDNA3.1-hy7 cDNA was transiently transfected into the COSm6 cell line using FUGENE and […] of DNA/106 cells. The COSm6 cells were grown in Dulbecco's modified Eagles medium supplemented with 2 mM glutamine and 10% fetal calf serum, in 5% CO2 at 37° C. Membranes were harvested with COSm6 cells 72hr post-transfection. Adherent cells were washed twice in ice-cold phosphate buffered saline and lysed using a glass homogeniser in ice-cold hypotonic buffer (50 mM Tris-HCl, pH 7.4, 0.1% bacitracin). Membranes were pelleted by high speed centrifugation (30,000×g, 15 min 4° C.), homogeniser again in ice-cold hypotonic buffer and collected again by high speed centrifugation (30,000×g, 15 min, 4° C.). […] Samples were incubated at room temperature for 2hr. Incubations were terminated by centrifugation (4 min) and pellets collected. Radioactivity was measured for 1 min in a g counter.

Substance	affinity of the protein encoded by the hy7 cDNA (radio-ligand binding)
PYY: peptide YY, 36 amino acids, member of the pancreatic polypeptide family	highest affinity

Same assay, conditions: inhibition of [125I]PYY (50 pM) binding, COSm6 membranes, single experiment, triplicate points

Substance	rank of potency for the Y7 receptor
(Leu31, Pro34)NPY: NPY-related peptide competitor, NPY analogue with Leu31 and Pro34	PYY>NPY>[2-36]PYY>[3-36]NPY>[13-36]NPY>>(Leu31, Pro34)NPY>PP
Neuropeptide Y [NPY]	PYY>NPY>[2-36]PYY>[3-36]NPY>[13-36]NPY>>(Leu31, Pro34)NPY>PP
PYY: peptide YY, 36 amino acids, member of the pancreatic polypeptide family	PYY>NPY>[2-36]PYY>[3-36]NPY>[13-36]NPY>>(Leu31, Pro34)NPY>PP
[2-36]PYY: NPY-related peptide competitor, PYY fragment 2-36	PYY>NPY>[2-36]PYY>[3-36]NPY>[13-36]NPY>>(Leu31, Pro34)NPY>PP
[3-36]NPY: NPY-related peptide competitor, NPY fragment 3-36	PYY>NPY>[2-36]PYY>[3-36]NPY>[13-36]NPY>>(Leu31, Pro34)NPY>PP
[13-36]NPY: NPY-related peptide competitor, NPY fragment 13-36	PYY>NPY>[2-36]PYY>[3-36]NPY>[13-36]NPY>>(Leu31, Pro34)NPY>PP
